Results published in US11124554B2, “Modified ligand-gated ion channels and methods of use” (Howard Hughes Medical Institute, priority 2016, dated 2021).
Read-outs that look alike come from different tables or passages of the source.

Key:
[1] = biological target: T1, α7-5HT3 (Homo sapiens, UniProt P36544, M226I/T225I); test: Agonist potency (EC50), HEK cells expressing chimeric channel; type: cell-based, human α7 nAChR LBD, murine 5HT3 IPD
T1 construct: expressed in transfected cells; host or cells: HEK cells
T1 sequence (P36544 with tags, fused parts or gaps T225I/M226I): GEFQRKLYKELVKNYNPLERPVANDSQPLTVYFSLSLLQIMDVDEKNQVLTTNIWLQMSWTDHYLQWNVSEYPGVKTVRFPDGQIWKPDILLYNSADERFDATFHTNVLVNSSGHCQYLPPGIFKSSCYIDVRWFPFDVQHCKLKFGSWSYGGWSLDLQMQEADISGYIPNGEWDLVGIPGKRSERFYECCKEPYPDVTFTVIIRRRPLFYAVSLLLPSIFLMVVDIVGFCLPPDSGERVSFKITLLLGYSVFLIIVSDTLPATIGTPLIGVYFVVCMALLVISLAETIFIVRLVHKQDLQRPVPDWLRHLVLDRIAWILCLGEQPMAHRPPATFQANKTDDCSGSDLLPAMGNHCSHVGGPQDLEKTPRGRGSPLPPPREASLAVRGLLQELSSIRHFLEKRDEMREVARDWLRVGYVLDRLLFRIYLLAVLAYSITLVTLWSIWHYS

[2] = biological target: T2, α7^Q79G-GlyR^A298G (Homo sapiens, UniProt P36544, A298G/Q79G); test: as above; type: cell-based
T2 construct: expressed in transfected cells; host or cells: HEK cells
T2 sequence (P36544 with tags, fused parts or gaps Q79G): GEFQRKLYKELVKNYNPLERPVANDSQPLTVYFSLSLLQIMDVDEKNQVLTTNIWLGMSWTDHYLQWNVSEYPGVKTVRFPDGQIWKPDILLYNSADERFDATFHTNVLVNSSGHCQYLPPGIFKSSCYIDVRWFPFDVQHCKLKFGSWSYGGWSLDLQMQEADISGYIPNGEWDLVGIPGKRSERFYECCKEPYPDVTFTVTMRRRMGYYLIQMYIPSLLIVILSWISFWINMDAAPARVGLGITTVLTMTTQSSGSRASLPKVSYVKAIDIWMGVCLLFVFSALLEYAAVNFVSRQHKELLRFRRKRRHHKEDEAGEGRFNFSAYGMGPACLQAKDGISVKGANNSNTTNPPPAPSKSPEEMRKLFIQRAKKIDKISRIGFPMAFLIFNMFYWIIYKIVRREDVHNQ

[3] = biological target: T3, α7-GlyR (Homo sapiens, UniProt P36544); test: as above; type: cell-based
T3 construct: expressed in transfected cells; host or cells: HEK cells
T3 sequence (P36544 with tags, fused parts or gaps): as the sequence (P36544 with tags, fused parts or gaps Q79G) above, with G57Q, G276A counted along it

[4] = system: α7^L131G-5HT3 HC; test: Agonist potency at chimeric channel (Table 9); type: cell-based, human; settings: α7^L131G-5HT3 HC; reduction
[5] = biological target: T4, α7^G175K-GlyR (Homo sapiens, UniProt P36544, G175K); test: Agonist potency at chimeric channel; type: cell-based; settings: Table 6; read-out: Potency, a7GlyR G175K
T4 construct: expressed in transfected cells
T4 sequence (P36544 with tags, fused parts or gaps G175K): as the sequence (P36544 with tags, fused parts or gaps Q79G) above, with G57Q, G153K, G276A counted along it

[6] = biological target: T5, α7^Q79G,Y115F,G175K-GlyR (Homo sapiens, UniProt P36544, G175K/Q79G/Y115F); test: Agonist potency at chimeric channel; type: cell-based; settings: Table 6; read-out: Potency, a7Gly Q79G G175K Y115F
T5 construct: expressed in transfected cells
T5 sequence (P36544 with tags, fused parts or gaps Q79G/Y115F/G175K): as the sequence (P36544 with tags, fused parts or gaps Q79G) above, with Y93F, G153K, G276A counted along it

[7] = biological target: T6, α7^Y115F,G175K-GlyR (Homo sapiens, UniProt P36544, G175K/Y115F); test: Agonist potency at chimeric channel; type: cell-based; settings: Table 6; read-out: Potency, a7GlyR Y115F G175K
T6 construct: expressed in transfected cells
T6 sequence (P36544 with tags, fused parts or gaps Y115F/G175K): as the sequence (P36544 with tags, fused parts or gaps Q79G) above, with G57Q, Y93F, G153K, G276A counted along it

[8] = biological target: T7, α7^W77F,Q79G,G175K-GlyR (Homo sapiens, UniProt P36544, G175K/Q79G/W77F); test: Agonist potency at chimeric channel; type: cell-based; settings: Table 6; read-out: Potency, a7GlyR W77F Q79G G175K
T7 construct: expressed in transfected cells
T7 sequence (P36544 with tags, fused parts or gaps W77F/Q79G/G175K): as the sequence (P36544 with tags, fused parts or gaps Q79G) above, with W55F, G153K, G276A counted along it

[9] = biological target: T8, α7^Q79G,G175K-GlyR (Homo sapiens, UniProt P36544, G175K/Q79G); test: Agonist potency at chimeric channel; type: cell-based; settings: Table 6; read-out: Potency, a7GlyR Q79G G175K
T8 construct: expressed in transfected cells
T8 sequence (P36544 with tags, fused parts or gaps Q79G/G175K): as the sequence (P36544 with tags, fused parts or gaps Q79G) above, with G153K, G276A counted along it

[10] = biological target: T9, α7GlyR Q79G G175K Y115F R27D E41R (Homo sapiens, UniProt P36544, E41R/G175K/Q79G/R27D/Y115F); test: Agonist potency at chimeric channel; type: cell-based; settings: Table 6; read-out: Potency, a7GlyR Q79G G175K Y115F R27D E41R
T9 construct: expressed in transfected cells
T9 sequence (P36544 with tags, fused parts or gaps R27D/E41R/Q79G/Y115F/G175K): as the sequence (P36544 with tags, fused parts or gaps Q79G) above, with R5D, E19R, Y93F, G153K, G276A counted along it

[11] = HEK cells, Table 3, read-out: α7-5HT3 EC50
[12] = HEK cells, Table 3, read-out: α7^Q79G-GlyR^A298G EC50
[13] = HEK cells, Table 3, read-out: α7-GlyR EC50
[14] = Table 6, read-out: Potency, a7-5HT3

Compound | EC50 [1, 11] [nM] | EC50 [2, 12] [nM] | EC50 [3, 13] [nM] | also measured
COc1ccc(OC)c(C(=O)NC2C3CCN(CC3)C2Cc2cccnc2)c1 (mixture of isomers) [Compound 0434] | > 10000 | 190 | > 10000 | 
O=C(NC1C2CCN(CC2)C1Cc1cccnc1)c1ccc(C(F)(F)F)cc1 (mixture of isomers) [Compound 0436] | 840 | 6 | 310 | 
CC(=O)OCC[N+](C)(C)C [Acetylcholine] |  |  |  | reduced ACh responsiveness [4]: 5 fold
O=C(NC1CN2CCC1CC2)c1ccc(C(F)(F)F)cn1 (stereo not drawn) [Compound 0295] | > 100000 | 4600 | > 100000 | 
O=C(NC1CN2CCC1CC2)c1ccc(C(F)(F)F)nc1 (stereo not drawn) [Compound 0296] | > 100000 | 450 |  | 
O=C(Nc1ccccc1)NC1CN2CCC1CC2 (stereo not drawn) [Compound 0353] | 650 | 10 | 270 | 
S=C(Nc1ccc(Cl)cc1)NC1CN2CCC1CC2 (stereo not drawn) [Compound 0354] |  | 30 |  | partial agonist activity, α7-5HT3 ([1]; HEK cells, Table 3): partial; EC50 ([1]; read-out: α7-5HT3 EC50, HEK cells, Table 3): 1400 nM; EC50 [3]: 1000 nM
CN1[C@@H]2CCC[C@H]1C[C@@H](NC(=S)c1ccc(Cl)cc1)C2 [Compound 0536] | > 33000 |  | > 100000 | EC50 [2]: 9100 nM
CN1C2CCC1CC(NC(=S)c1c[nH]c3ccccc13)C2 (stereo not drawn) [Compound 0542] | 3800 | 72 |  | 
CN1C2CCC1CC(NC(=S)c1cn(C)c3ccccc13)C2 (stereo not drawn) [Compound 622] |  |  |  | EC50 [5]: 870 nM; EC50 [1, 14]: > 100000 nM; EC50 [6]: 930 nM; EC50 [7]: 2500 nM; EC50 [8]: 1700 nM
O=C(NC1CN2CCC1CC2)c1c[nH]c2ccccc12 (stereo not drawn) [Compound 0676] | 30 | 2 |  | 
FC(F)(F)Oc1ccc(NC(=S)N[C@H]2CN3CCC2CC3)cc1 [Compound 684] |  |  |  | EC50 [9]: 78 nM; EC50 [5]: 230 nM; EC50 [1, 14]: > 100000 nM; EC50 [10]: 400 nM; EC50 [6]: 790 nM
